This experiment deals with CD2F1 mice, L1210 leukemia ip, survival T/C. The experiment in a line: NCI In Vivo Anticancer Drug Screen. Data for tumor model L1210 Leukemia (intraperitoneal) in CD2F1 (CDF1) mice. Particulars: higher = longer survival. In outline:
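Each value reflects a quotient of treated over vehicle control outcomes in mice with a transplanted tumor.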

[1] abbreviates: endpoint: mean survival time, dose: 100.0 mg/kg/injection, schedule: Q01DX001 (ip), vehicle: saline with Tween-80.
Setting [2] is: endpoint: mean survival time, dose: 200.0 mg/kg/injection, schedule: Q01DX001 (ip), vehicle: saline with Tween-80.
Where [3] appears, read: endpoint: mean survival time, dose: 400.0 mg/kg/injection, schedule: Q01DX001 (ip), vehicle: saline with Tween-80.
The mark [4] stands for this setting: endpoint: mean survival time, dose: 100.0 mg/kg/injection, schedule: Q01DX009 (ip), vehicle: saline with Tween-80.
Where [5] appears, read: endpoint: mean survival time, dose: 200.0 mg/kg/injection, schedule: Q01DX009 (ip), vehicle: saline with Tween-80.
[6] abbreviates: endpoint: mean survival time, dose: 400.0 mg/kg/injection, schedule: Q01DX009 (ip), vehicle: saline with Tween-80.
Setting [7] is: endpoint: mean survival time, dose: 50.0 mg/kg/injection, schedule: Q01DX001 (ip), vehicle: saline with Tween-80.
Setting [8] is: endpoint: mean survival time, dose: 100.0 mg/kg/injection, schedule: Q04DX003 (ip), vehicle: saline with Tween-80.
Setting [9] is: endpoint: mean survival time, dose: 200.0 mg/kg/injection, schedule: Q04DX003 (ip), vehicle: saline with Tween-80.
The mark [10] stands for this setting: endpoint: mean survival time, dose: 400.0 mg/kg/injection, schedule: Q04DX003 (ip), vehicle: saline with Tween-80.

The record followed here is PubChem BioAssay AID256 (DTP/NCI, 2004).

Several values for one entry are separate records, joined by “and”; a condition that tells them apart may be missing. Equal entries are not always repeated. Toxic doses and inconclusive results are not listed. Non-standard residues stand in square brackets, D forms with d. Residues, ends and D or L forms follow the SMILES beside them. ξ: configuration not given here. *: point of attachment. ξW = NC(Cc1c[nH]c2ccccc12)C(=O)O; Cbz = O=C(OCc1ccccc1)*

With `O=C(c1ccccc1)C(c1ccccc1)(c1ccccc1)c1ccccc1`, the T/C runs as follows: under setting [1], 93 % of control; under setting [2], 89 % of control; under setting [3], 89 % of control.

Take `COc1cc([C@@H]2c3cc4c(cc3[C@H](OC(C)=O)[C@H]3COC(=O)[C@@H]23)OCO4)cc(OC)c1OC`: the T/C (endpoint: mean survival time, dose: 100.0 mg/kg/injection, schedule: Q01DX009 (ip), vehicle: saline sonified) was 88 % of control.

Consider `C(=N\Nc1ccccc1)/c1ccc2c(c1)OCO2`, for which the T/C under setting [1] was 100 % of control; the T/C under setting [4] was 97 % of control; the T/C under setting [2] is 101 % of control; the T/C under setting [5] was 104 % of control; the T/C under setting [3] was 95 % of control; the T/C under setting [6] was 100 % of control.

Turning to `CCCCCCCCCCCCCCC[N+]1(C)CCSCC1`, the T/C (endpoint: mean survival time, dose: 25.0 mg/kg/injection, schedule: Q01DX001 (ip), vehicle: saline with Tween-80) is 100 % of control and the T/C under setting [7] is 95 % of control.

On to `O=C(Nc1ccc(C2=NCCN2)cc1)c1cc(Cl)cc(C(=O)Nc2ccc(C3=NCCN3)cc2)c1`, for which the T/C by setting is: (endpoint: mean survival time, dose: 62.5 mg/kg/injection, schedule: Q01DX009 (ip), vehicle: saline) 101 % of control and 104 % of control; (endpoint: mean survival time, dose: 125.0 mg/kg/injection, schedule: Q01DX009 (ip), vehicle: saline) 101 % of control and 103 % of control; (endpoint: mean survival time, dose: 250.0 mg/kg/injection, schedule: Q01DX009 (ip), vehicle: saline) 107 % of control and 108 % of control; (endpoint: mean survival time, dose: 500.0 mg/kg/injection, schedule: Q01DX009 (ip), vehicle: saline) 115 % of control and 110 % of control.

Take `O=C(/C=C\c1ccc([N+]([O-])=Nc2ccc(/C=C/C(=O)c3ccccc3)cc2)cc1)c1ccccc1`: the T/C runs as follows: under setting [1], 102 % of control; under setting [2], 86 % of control; under setting [3], 98 % of control.

Regarding `[Cl][Pt+2][Cl].[NH-]C1C(O)OC(CO)C(O)C1O.[NH-]C1C(O)OC(CO)C(O)C1O` (centres undefined), the T/C was 105 % of control (endpoint: median survival time, dose: 2.5 mg/kg/injection, schedule: Q04DX003 (ip), vehicle: saline); 110 % of control (endpoint: median survival time, dose: 5.0 mg/kg/injection, schedule: Q04DX003 (ip), vehicle: saline); 93 % of control (endpoint: median survival time, dose: 10.0 mg/kg/injection, schedule: Q04DX003 (ip), vehicle: saline); 100 % of control (endpoint: median survival time, dose: 20.0 mg/kg/injection, schedule: Q04DX003 (ip), vehicle: saline); 103 % of control (endpoint: median survival time, dose: 25.0 mg/kg/injection, schedule: Q04DX003 (ip), vehicle: saline); 105 % of control (endpoint: median survival time, dose: 50.0 mg/kg/injection, schedule: Q04DX003 (ip), vehicle: saline). For the same compound, the T/C is 103 % of control (endpoint: median survival time, dose: 100.0 mg/kg/injection, schedule: Q04DX003 (ip), vehicle: saline) and 101 % of control (endpoint: median survival time, dose: 200.0 mg/kg/injection, schedule: Q04DX003 (ip), vehicle: saline).

With `O=C(OCC1OCOC1C1OCOC1COC(=O)c1ccccc1)c1ccccc1` (centres undefined), the T/C is 102 % of control (endpoint: mean survival time, dose: 100.0 mg/kg/injection, schedule: Q04DX003 (ip), vehicle: Klucel (hydroxypropylcellulose) (HPC)); 97 % of control (endpoint: mean survival time, dose: 200.0 mg/kg/injection, schedule: Q04DX003 (ip), vehicle: Klucel (hydroxypropylcellulose) (HPC)); 91 % of control (endpoint: mean survival time, dose: 400.0 mg/kg/injection, schedule: Q04DX003 (ip), vehicle: Klucel (hydroxypropylcellulose) (HPC)).

Turning to `N#CC(/C=C/c1ccccc1)Nc1ccc(CCc2ccc(NC(C#N)/C=C/c3ccccc3)cc2)cc1` (centres undefined), the T/C was 94 % of control under setting [4], 90 % of control under setting [5] and 100 % of control under setting [6].

With `CC/C=C\CC1OCCO1`, the T/C (endpoint: mean survival time, dose: 50.0 mg/kg/injection, schedule: Q01DX009 (ip), vehicle: saline with Tween-80) was 95 % of control; the T/C under setting [4] was 92 % of control; the T/C under setting [5] was 95 % of control.

As for `C=CC(=O)NC(C)(C)CC(C)=O`, the T/C was 98 % of control under setting [1]; 103 % of control (endpoint: mean survival time, dose: 100.0 mg/kg/injection, schedule: Q01DX001 (ip), vehicle: saline); 100 % of control (endpoint: mean survival time, dose: 100.0 mg/kg/injection, schedule: Q01DX009 (ip), vehicle: saline); 102 % of control under setting [2]; 97 % of control (endpoint: mean survival time, dose: 200.0 mg/kg/injection, schedule: Q01DX001 (ip), vehicle: saline); 100 % of control (endpoint: mean survival time, dose: 200.0 mg/kg/injection, schedule: Q01DX009 (ip), vehicle: saline). For the same compound, the T/C runs as follows: under setting [3], 102 % of control; (endpoint: mean survival time, dose: 400.0 mg/kg/injection, schedule: Q01DX001 (ip), vehicle: saline) 102 % of control.

`O=[N+]([O-])c1ccccc1-c1cc(-c2ccccc2)nn1-c1ccccc1`: the T/C reads like this: under setting [4], 102 % of control; under setting [8], 98 % of control; under setting [5], 103 % of control; under setting [9], 98 % of control; under setting [6], 97 % of control; under setting [10], 95 % of control.

As to `c1ccc(C(c2ccccc2)C(c2ccccc2)c2ccccc2)cc1`, the T/C is 89 % of control (endpoint: mean survival time, dose: 18.7 mg/kg/injection, schedule: Q01DX009 (ip), vehicle: saline with Tween-80) and 89 % of control (endpoint: mean survival time, dose: 37.5 mg/kg/injection, schedule: Q01DX009 (ip), vehicle: saline with Tween-80).

For `CCOC(=O)/C(C)=C(/N)c1ccccc1`, the T/C under setting [8] was 98 % of control, the T/C under setting [9] is 95 % of control and the T/C under setting [10] was 92 % of control.

`NC(=O)CNC(=O)C(Cc1c[nH]c2ccccc12)NC(=O)OCc1ccccc1` (centres undefined) (Cbz-[ξW]-Gly-NH2): the T/C (endpoint: mean survival time, dose: 75.0 mg/kg/injection, schedule: Q04DX003 (ip), vehicle: saline) is 93 % of control; the T/C (endpoint: mean survival time, dose: 150.0 mg/kg/injection, schedule: Q04DX003 (ip), vehicle: saline) is 97 % of control; the T/C (endpoint: mean survival time, dose: 300.0 mg/kg/injection, schedule: Q04DX003 (ip), vehicle: saline) is 98 % of control.

Turning to `O=C1C=C(N2C3C4CCC(C4)C32)C(=O)C=C1c1ccccc1` (centres undefined), the T/C runs as follows: under setting [7], 96 % of control and 98 % of control and 108 % of control; under setting [1], 121 % of control and 94 % of control and 96 % of control; under setting [2], 115 % of control and 97 % of control and 102 % of control; under setting [3], 102 % of control.

As for `CC(=O)Nc1cccc2ccc3c4ccccc4ccc3c12`, the T/C was 86 % of control under setting [8], 89 % of control under setting [9] and 98 % of control under setting [10].

`Nc1nc(Cl)nc2c1ncn2C1CC(O)C(CO)O1` (centres undefined): the T/C is, setting by setting: (endpoint: median survival time, dose: 1.56 mg/kg/injection, schedule: Q01DX009 (ip), vehicle: Klucel (hydroxypropylcellulose) (HPC)) 124 % of control; (endpoint: median survival time, dose: 7.5 mg/kg/injection, schedule: Q03HX009 (ip), vehicle: saline) 172 % of control; (endpoint: median survival time, dose: 7.5 mg/kg/injection, schedule: Q03HX009 (ip), vehicle: suspension in saline) 107 % of control; (endpoint: median survival time, dose: 10.0 mg/kg/injection, schedule: Q03HX024 (ip), vehicle: saline) 735 % of control; (endpoint: median survival time, dose: 12.5 mg/kg/injection, schedule: Q01DX009 (ip), vehicle: Klucel (hydroxypropylcellulose) (HPC)) 180 % of control; (endpoint: median survival time, dose: 15.0 mg/kg/injection, schedule: Q03HX009 (ip), vehicle: saline) 168 % of control. In addition, the T/C runs as follows: (endpoint: median survival time, dose: 15.0 mg/kg/injection, schedule: Q03HX009 (ip), vehicle: suspension in saline) 100 % of control; (endpoint: median survival time, dose: 15.0 mg/kg/injection, schedule: Q03HX024 (ip), vehicle: saline) 345 % of control; (endpoint: median survival time, dose: 20.0 mg/kg/injection, schedule: Q03HX024 (ip), vehicle: saline) 735 % of control; (endpoint: median survival time, dose: 25.0 mg/kg/injection, schedule: Q01DX009 (ip), vehicle: Klucel (hydroxypropylcellulose) (HPC)) 192 % of control; (endpoint: median survival time, dose: 30.0 mg/kg/injection, schedule: Q03HX009 (ip), vehicle: saline) 208 % of control; (endpoint: median survival time, dose: 30.0 mg/kg/injection, schedule: Q03HX009 (ip), vehicle: suspension in saline) 109 % of control. Besides, the T/C is, setting by setting: (endpoint: median survival time, dose: 60.0 mg/kg/injection, schedule: Q03HX009 (ip), vehicle: saline) 204 % of control; (endpoint: median survival time, dose: 60.0 mg/kg/injection, schedule: Q03HX009 (ip), vehicle: suspension in saline) 109 % of control; (endpoint: median survival time, dose: 120.0 mg/kg/injection, schedule: Q03HX009 (ip), vehicle: suspension in saline) 113 % of control.

Regarding `N#CSCCN1C(=O)C2C3CCC(O3)C2C1=O` (centres undefined), for the setting “endpoint: mean survival time, dose: 25.0 mg/kg/injection, schedule: Q04DX002 (ip), vehicle: saline with Tween-80”, the T/C is 103 % of control.

For `CCOc1ccc(N=Nc2sc(N)nc2-c2cccc([N+](=O)[O-])c2)cc1`, the T/C was 89 % of control under setting [1], 96 % of control under setting [2] and 96 % of control under setting [3].
